{"source": "patent US8871681B2", "about": "“Herbicidal compositions comprising 4-amino-3-chloro-5-fluoro-6-(4-chloro-2-fluoro-3-methoxyphenyl) pyridine-2-carboxylic acid or a derivative thereof and certain sulfonylureas” (Dow AgroSciences LLC, priority 2012, dated 2014)", "test_system": "ECHOR (Echinochloa oryzoides, early watergrass)", "test": "In-water applied weed control, transplanted paddy rice, greenhouse (Example II)", "assay_type": "in vivo, Echinochloa oryzoides (Ard.) Fritsch", "how_it_was_run": "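Transplanted rice and weeds at first to fourth true leaf stage in flooded mud pots (2.5–3 cm water), greenhouse ~29/26 °C day/night. Herbicides alone or mixed, in 1.25% crop oil concentrate (acetone for technical material), injected into the flood; visual 0–100% injury after ~3 weeks, expected mixture effects by Colby.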"}
{"smiles": "COC(=O)c1ccccc1CS(=O)(=O)NC(=O)Nc1nc(OC)cc(OC)n1", "note": "[Bensulfuron-methyl, methyl 2-[[[[[(4,6-dimethoxy-2-pyrimidinyl)amino]carbonyl]amino]sulfonyl]methyl]benzoate, reference compound]", "values": [{"measurement": "Visual Weed Control (%) - 25 DAA ECHOR Obs", "setting": "Table 31, 35 gai/ha alone", "result": 80, "unit": "%"}, {"measurement": "Visual Weed Control (%) - 19 DAA ECHOR Obs", "setting": "Table 31, 70 gai/ha alone", "result": 78, "unit": "%"}, {"measurement": "Visual Weed Control (%) - 25 DAA ECHOR Obs", "setting": "Table 31, 70 gai/ha alone", "result": 85, "unit": "%"}, {"measurement": "Visual Weed Control (%) - 21 DAA ECHOR Obs", "setting": "Table 32, 35 gai/ha alone", "result": 0, "unit": "%"}, {"measurement": "Visual Weed Control (%) - 21 DAA ECHOR Obs", "setting": "Table 32, 70 gai/ha alone", "result": 15, "unit": "%"}]}
{"smiles": "COC(=O)c1ccccc1S(=O)(=O)NC(=O)Nc1nc(C)nc(OC)n1", "note": "[Metsulfuron-methyl, methyl 2-[[[[(4-methoxy-6-methyl-1,3,5-triazin-2-yl)amino]carbonyl]amino]sulfonyl]benzoate, reference compound]", "values": [{"measurement": "Visual Weed Control (%) - 21 DAA ECHOR Obs", "setting": "Table 41, 7.5 gai/ha alone", "result": 50, "unit": "%"}, {"measurement": "Visual Weed Control (%) - 21 DAA ECHOR Obs", "setting": "Table 41, 15 gai/ha alone", "result": 65, "unit": "%"}, {"measurement": "Visual Weed Control (%) - 21 DAA ECHOR Obs", "setting": "Table 42, 7.5 gai/ha alone", "result": 50, "unit": "%"}, {"measurement": "Visual Weed Control (%) - 21 DAA ECHOR Obs", "setting": "Table 42, 15 gai/ha alone", "result": 65, "unit": "%"}]}
{"smiles": "COc1c(Cl)ccc(-c2nc(C(=O)OCc3ccccc3)c(Cl)c(N)c2F)c1F", "note": "[Compound A Benzyl Ester]", "values": [{"measurement": "Visual Weed Control (%) - 20 DAA ECHOR Obs", "setting": "Table 29, 4.38 gae/ha alone", "result": 10, "unit": "%"}, {"measurement": "Visual Weed Control (%) - 20 DAA ECHOR Obs", "setting": "Table 29, 8.75 gae/ha alone", "result": 20, "unit": "%"}, {"measurement": "Visual Weed Control (%) - 20 DAA ECHOR Obs", "setting": "Table 29, 17.5 gae/ha alone", "result": 30, "unit": "%"}, {"measurement": "Visual Weed Control (%) - 20 DAA ECHOR Obs", "setting": "Table 29, 35 gae/ha alone", "result": 53, "unit": "%"}, {"measurement": "Visual Weed Control (%) - 20 DAA ECHOR Obs", "setting": "Table 29, 70 gae/ha alone", "result": 73, "unit": "%"}, {"measurement": "Visual Weed Control (%) - 21 DAA ECHOR Obs", "setting": "Table 32, 8 gae/ha alone", "result": 8, "unit": "%"}, {"measurement": "Visual Weed Control (%) - 21 DAA ECHOR Obs", "setting": "Table 32, 16 gae/ha alone", "result": 5, "unit": "%"}, {"measurement": "Visual Weed Control (%) - 22 DAA ECHOR Obs", "setting": "Table 35, 17.5 gae/ha alone", "result": 30, "unit": "%"}, {"measurement": "Visual Weed Control (%) - 21 DAA ECHOR Obs", "setting": "Table 37, 8.75 gae/ha alone", "result": 25, "unit": "%"}, {"measurement": "Visual Weed Control (%) - 21 DAA ECHOR Obs", "setting": "Table 37, 17.5 gae/ha alone", "result": 25, "unit": "%"}, {"measurement": "Visual Weed Control (%) - 21 DAA ECHOR Obs", "setting": "Table 42, 4.38 gae/ha alone", "result": 15, "unit": "%"}, {"measurement": "Visual Weed Control (%) - 21 DAA ECHOR Obs", "setting": "Table 42, 8.75 gae/ha alone", "result": 15, "unit": "%"}, {"measurement": "Visual Weed Control (%) - 21 DAA ECHOR Obs", "setting": "Table 42, 17.5 gae/ha alone", "result": 20, "unit": "%"}, {"measurement": "Visual Weed Control (%) - 20 DAA ECHOR Obs", "setting": "Table 44, 8.75 gae/ha alone", "result": 20, "unit": "%"}, {"measurement": "Visual Weed Control (%) - 20 DAA ECHOR Obs", "setting": "Table 44, 17.5 gae/ha alone", "result": 30, "unit": "%"}, {"measurement": "Visual Weed Control (%) - 21 DAA ECHOR Obs", "setting": "Table 46, 4.38 gae/ha alone", "result": 0, "unit": "%"}, {"measurement": "Visual Weed Control (%) - 21 DAA ECHOR Obs", "setting": "Table 46, 8.75 gae/ha alone", "result": 10, "unit": "%"}, {"measurement": "Visual Weed Control (%) - 21 DAA ECHOR Obs", "setting": "Table 46, 17.5 gae/ha alone", "result": 60, "unit": "%"}]}
{"smiles": "COc1c(Cl)ccc(-c2nc(C(=O)O)c(Cl)c(N)c2F)c1F", "note": "[Compound A Acid, 4-amino-3-chloro-5-fluoro-6-(4-chloro-2-fluoro-3-methoxy-phenyl)pyridine-2-carboxylic acid]", "values": [{"measurement": "Visual Weed Control (%) - 20 DAA ECHOR Obs", "setting": "Table 28, 8.75 gae/ha alone", "result": 20, "unit": "%"}, {"measurement": "Visual Weed Control (%) - 20 DAA ECHOR Obs", "setting": "Table 28, 17.5 gae/ha alone", "result": 30, "unit": "%"}, {"measurement": "Visual Weed Control (%) - 20 DAA ECHOR Obs", "setting": "Table 28, 35 gae/ha alone", "result": 40, "unit": "%"}, {"measurement": "Visual Weed Control (%) - 20 DAA ECHOR Obs", "setting": "Table 28, second set, 35 gae/ha alone", "result": 25, "unit": "%"}, {"measurement": "Visual Weed Control (%) - 20 DAA ECHOR Obs", "setting": "Table 28, second set, 70 gae/ha alone", "result": 35, "unit": "%"}, {"measurement": "Visual Weed Control (%) - 25 DAA ECHOR Obs", "setting": "Table 31, 8.75 gae/ha alone", "result": 0, "unit": "%"}, {"measurement": "Visual Weed Control (%) - 25 DAA ECHOR Obs", "setting": "Table 31, 17.5 gae/ha alone", "result": 0, "unit": "%"}, {"measurement": "Visual Weed Control (%) - 25 DAA ECHOR Obs", "setting": "Table 31, 35 gae/ha alone", "result": 40, "unit": "%"}, {"measurement": "Visual Weed Control (%) - 19 DAA ECHOR Obs", "setting": "Table 31, 42 gae/ha alone", "result": 15, "unit": "%"}, {"measurement": "Visual Weed Control (%) - 22 DAA ECHOR Obs", "setting": "Table 34, 10.6 gae/ha alone", "result": 15, "unit": "%"}, {"measurement": "Visual Weed Control (%) - 22 DAA ECHOR Obs", "setting": "Table 34, 21.2 gae/ha alone", "result": 30, "unit": "%"}, {"measurement": "Visual Weed Control (%) - 22 DAA ECHOR Obs", "setting": "Table 34, 42.4 gae/ha alone", "result": 40, "unit": "%"}, {"measurement": "Visual Weed Control (%) - 21 DAA ECHOR Obs", "setting": "Table 36, 8.75 gae/ha alone", "result": 10, "unit": "%"}, {"measurement": "Visual Weed Control (%) - 21 DAA ECHOR Obs", "setting": "Table 36, 17.5 gae/ha alone", "result": 10, "unit": "%"}, {"measurement": "Visual Weed Control (%) - 21 DAA ECHOR Obs", "setting": "Table 36, 35 gae/ha alone", "result": 15, "unit": "%"}, {"measurement": "Visual Weed Control (%) - 21 DAA ECHOR Obs", "setting": "Table 41, 10.6 gae/ha alone", "result": 0, "unit": "%"}, {"measurement": "Visual Weed Control (%) - 21 DAA ECHOR Obs", "setting": "Table 41, 21.2 gae/ha alone", "result": 15, "unit": "%"}, {"measurement": "Visual Weed Control (%) - 21 DAA ECHOR Obs", "setting": "Table 41, 42.4 gae/ha alone", "result": 15, "unit": "%"}, {"measurement": "Visual Weed Control (%) - 20 DAA ECHOR Obs", "setting": "Table 43, 10.6 gae/ha alone", "result": 10, "unit": "%"}, {"measurement": "Visual Weed Control (%) - 20 DAA ECHOR Obs", "setting": "Table 43, 21.2 gae/ha alone", "result": 30, "unit": "%"}, {"measurement": "Visual Weed Control (%) - 20 DAA ECHOR Obs", "setting": "Table 43, 42.4 gae/ha alone", "result": 45, "unit": "%"}]}
{"smiles": "COCC(=O)OC(c1ncccc1S(=O)(=O)NC(=O)Nc1nc(OC)cc(OC)n1)C(C)F", "note": "(stereo not shown) [Flucetosulfuron, 1-[3-[[[[(4,6-dimethoxy-2-pyrimidinyl)amino]carbonyl]amino]sulfonyl]-2-pyridinyl]-2-fluoropropyl 2-methoxyacetate]", "values": [{"measurement": "Visual Weed Control (%) - 21 DAA ECHOR Obs", "setting": "Table 36, 0.1 gai/ha alone", "result": 0, "unit": "%"}, {"measurement": "Visual Weed Control (%) - 21 DAA ECHOR Obs", "setting": "Table 36, 0.2 gai/ha alone", "result": 0, "unit": "%"}, {"measurement": "Visual Weed Control (%) - 21 DAA ECHOR Obs", "setting": "Table 37, 0.1 gai/ha alone", "result": 0, "unit": "%"}, {"measurement": "Visual Weed Control (%) - 21 DAA ECHOR Obs", "setting": "Table 37, 0.2 gai/ha alone", "result": 0, "unit": "%"}]}
